This passage reports relative viability results from the supplement of paper PMC10307832.

What all share (assay): relative viability (nuclei count vs DMSO), 5 days (fraction); higher = more cells survive
Compound in assay [1]: C1/C(=C\C2=CC=CS2)/C(=O)/C(=C/C3=CC=CS3)/C1 + CS(=O)(=O)CCNCc1ccc(-c2ccc3ncnc(Nc4ccc(OCc5cccc(F)c5)c(Cl)c4)c3c2)o1 [Lapatinib] (partner 2 µM)
A digest of the protocol: (§1)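 Dosing by pin tool came one day after lung cancer cell lines were seeded in 1536-well plates, using either one drug or a fixed anchor-drug dose plus five library-drug doses (not always all listed) in √10 steps. After 5 days, nuclei were counted on 4× images. Relative viability is treated-well nuclei count divided by vehicle-well nuclei count, and values are medians of duplicate plates.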

Compound in assay [2]: C1/C(=C\C2=CC=CS2)/C(=O)/C(=C/C3=CC=CS3)/C1 + NC(=O)Nc1cc(-c2cccc(F)c2)sc1C(=O)N[C@H]1CCCNC1 [AZD7762] (partner 0.2 µM)
A digest of the protocol:
as §1

Compound in assay [3]: C[C@]12O[C@H](C[C@]1(O)CO)n1c3ccccc3c3c4c(c5c6ccccc6n2c5c31)CNC4=O [Lestaurtinib] + CC(=O)Nc1cccc(-n2c(=O)n(C3CC3)c(=O)c3c(Nc4ccc(I)cc4F)n(C)c(=O)c(C)c32)c1 [Trametinib] (partner 0.02 µM)
A digest of the protocol: as §1

Compound in the assay “Lestaurtinib + Olaparib”: C[C@]12O[C@H](C[C@]1(O)CO)n1c3ccccc3c3c4c(c5c6ccccc6n2c5c31)CNC4=O [Lestaurtinib] + O=C(c1cc(Cc2n[nH]c(=O)c3ccccc23)ccc1F)N1CCN(C(=O)C2CC2)CC1 [Olaparib] (partner 8 µM)
A digest of the protocol: as §1

With NCI-H2347, the relative viability turned out to be 1.03 in assay [1] (first compound 0.2 µM); 0.977 in assay [1] (first compound 0.6325 µM); 0.901 in assay [1] (first compound 2 µM); 0.898 in assay [1] (first compound 6.325 µM); 0.915 in assay [1] (first compound 20 µM); 0.788 in assay [2] (first compound 0.2 µM). Also, the relative viability was determined as 0.696 in assay [2] (first compound 0.6325 µM); 0.866 in assay [2] (first compound 2 µM); 0.65 in assay [2] (first compound 6.325 µM); 0.792 in assay [2] (first compound 20 µM); 0.288 in assay [3] (first compound 0.005 µM); 0.305 in assay [3] (first compound 0.01581 µM). For the same cell line, the relative viability was determined as 0.299 in assay [3] (first compound 0.05 µM); 0.278 in assay [3] (first compound 0.1581 µM); 0.301 in assay [3] (first compound 0.5 µM); 0.567 in the assay with Lestaurtinib + Olaparib (first compound 0.005 µM); 0.639 with Lestaurtinib + Olaparib (first compound 0.01581 µM); 0.581 with Lestaurtinib + Olaparib (first compound 0.05 µM). Further, the results for the relative viability in the assay with Lestaurtinib + Olaparib (first compound 0.1581 µM) and with Lestaurtinib + Olaparib (first compound 0.5 µM) were 0.529 and 0.607, respectively.

NCI-H2405: the relative viability in assay [1] (first compound 0.2 µM) worked out at 1.12; in assay [1] (first compound 0.6325 µM), 1.07; in assay [1] (first compound 2 µM), 1.33; in assay [1] (first compound 6.325 µM), 0.887; in assay [1] (first compound 20 µM), 1.14; in assay [2] (first compound 0.2 µM), 0.958. The relative viability was 0.757 in assay [2] (first compound 0.6325 µM); 0.867 in assay [2] (first compound 2 µM); 0.716 in assay [2] (first compound 6.325 µM); 0.715 in assay [2] (first compound 20 µM); 0.701 in assay [3] (first compound 0.005 µM); 0.656 in assay [3] (first compound 0.01581 µM). Besides, the relative viability came to 0.572 in assay [3] (first compound 0.05 µM); 0.54 in assay [3] (first compound 0.1581 µM); 0.274 in assay [3] (first compound 0.5 µM); 0.98 in the assay with Lestaurtinib + Olaparib (first compound 0.005 µM); 1.01 in the assay with Lestaurtinib + Olaparib (first compound 0.01581 µM); 0.913 in the assay with Lestaurtinib + Olaparib (first compound 0.05 µM). In addition, the relative viability amounted to 0.846 with Lestaurtinib + Olaparib (first compound 0.1581 µM) and 0.486 in the assay with Lestaurtinib + Olaparib (first compound 0.5 µM).

For NCI-H3122, the relative viability in assay [1] (first compound 0.2 µM) worked out at 1; in assay [1] (first compound 0.6325 µM), 1.06; in assay [1] (first compound 2 µM), 1.04; in assay [1] (first compound 6.325 µM) it was 0.877; in assay [1] (first compound 20 µM), 0.995; in assay [2] (first compound 0.2 µM), 0.983. Also, the relative viability in assay [2] (first compound 0.6325 µM) amounted to 0.919; in assay [2] (first compound 2 µM) it was 0.968; in assay [2] (first compound 6.325 µM), 0.956; in assay [2] (first compound 20 µM), 0.967; in assay [3] (first compound 0.005 µM), 0.298; in assay [3] (first compound 0.01581 µM), 0.228. The relative viability worked out at 0.228 in assay [3] (first compound 0.05 µM); 0.223 in assay [3] (first compound 0.1581 µM); 0.335 in assay [3] (first compound 0.5 µM); 0.862 with Lestaurtinib + Olaparib (first compound 0.005 µM); 0.637 with Lestaurtinib + Olaparib (first compound 0.01581 µM); 0.552 in the assay with Lestaurtinib + Olaparib (first compound 0.05 µM). The relative viability in the assay with Lestaurtinib + Olaparib (first compound 0.1581 µM) came to 0.598; with Lestaurtinib + Olaparib (first compound 0.5 µM) it was 0.5.

As for PC-3 [JPC-3], the relative viability came to 0.445 in assay [1] (first compound 0.2 µM); 0.406 in assay [1] (first compound 0.6325 µM); 0.512 in assay [1] (first compound 2 µM); 0.461 in assay [1] (first compound 6.325 µM); 0.446 in assay [1] (first compound 20 µM); 0.934 in assay [2] (first compound 0.6325 µM). Further, the relative viability in assay [2] (first compound 2 µM) was determined as 0.889; in assay [2] (first compound 6.325 µM), 0.804; in assay [2] (first compound 20 µM), 0.798; in assay [3] (first compound 0.005 µM), 0.766; in assay [3] (first compound 0.01581 µM), 0.709; in assay [3] (first compound 0.05 µM), 0.779. Besides, the relative viability in assay [3] (first compound 0.1581 µM) was found to be 0.575; in assay [3] (first compound 0.5 µM) it was 0.585; in the assay with Lestaurtinib + Olaparib (first compound 0.005 µM), 1.2; in the assay with Lestaurtinib + Olaparib (first compound 0.01581 µM), 1.3; in the assay with Lestaurtinib + Olaparib (first compound 0.05 µM), 0.818; in the assay with Lestaurtinib + Olaparib (first compound 0.1581 µM), 1.03. Further, the relative viability in the assay with Lestaurtinib + Olaparib (first compound 0.5 µM) turned out to be 0.698.

As to PC-14, the relative viability in assay [1] (first compound 0.2 µM) was determined as 0.352; in assay [1] (first compound 0.6325 µM), 0.362; in assay [1] (first compound 2 µM), 0.353; in assay [1] (first compound 6.325 µM), 0.293; in assay [1] (first compound 20 µM), 0.27; in assay [2] (first compound 0.2 µM) it was 0.433. Also, the relative viability in assay [2] (first compound 0.6325 µM) was 0.357; in assay [2] (first compound 2 µM), 0.352; in assay [2] (first compound 6.325 µM), 0.306; in assay [2] (first compound 20 µM) it was 0.432; in assay [3] (first compound 0.005 µM), 0.793; in assay [3] (first compound 0.01581 µM), 0.787. Also, the relative viability in assay [3] (first compound 0.05 µM) turned out to be 0.701; in assay [3] (first compound 0.1581 µM), 0.548; in assay [3] (first compound 0.5 µM) it was 0.0827; in the assay with Lestaurtinib + Olaparib (first compound 0.005 µM) it was 0.252; with Lestaurtinib + Olaparib (first compound 0.01581 µM) it was 0.243; in the assay with Lestaurtinib + Olaparib (first compound 0.05 µM), 0.242. Also, the relative viability with Lestaurtinib + Olaparib (first compound 0.1581 µM) came out at 0.238; with Lestaurtinib + Olaparib (first compound 0.5 µM), 0.179.

Regarding RERF-LC-KJ, the relative viability in assay [1] (first compound 0.2 µM) was found to be 0.915; in assay [1] (first compound 0.6325 µM) it was 0.943; in assay [1] (first compound 2 µM), 0.827; in assay [1] (first compound 6.325 µM), 0.893; in assay [1] (first compound 20 µM) it was 0.764; in assay [2] (first compound 0.2 µM), 1.09. Besides, the relative viability in assay [2] (first compound 0.6325 µM) was determined as 1.04; in assay [2] (first compound 2 µM), 1.05; in assay [2] (first compound 6.325 µM), 0.87; in assay [2] (first compound 20 µM) it was 1.06; in assay [3] (first compound 0.005 µM), 0.946; in assay [3] (first compound 0.01581 µM), 0.879. The relative viability was 0.736 in assay [3] (first compound 0.05 µM); 0.701 in assay [3] (first compound 0.1581 µM); 0.478 in assay [3] (first compound 0.5 µM); 1.13 in the assay with Lestaurtinib + Olaparib (first compound 0.005 µM); 1.07 in the assay with Lestaurtinib + Olaparib (first compound 0.01581 µM); 0.961 with Lestaurtinib + Olaparib (first compound 0.05 µM). Besides, the relative viability with Lestaurtinib + Olaparib (first compound 0.1581 µM) was found to be 0.952; with Lestaurtinib + Olaparib (first compound 0.5 µM), 0.399.
